Test results published in article PMC12392461, “Beyond Estrogenicity: A Comparative Assessment of Bisphenol A and Its Alternatives in In Vitro Assays Questions Safety of Replacements” (Environmental Science & Technology, 2025).
Like-named read-outs stand apart in the source and are kept apart here.

Legend:
[1] = system: Mitochondrial Membrane Potential; assay: cells; conditions: for EC10, linear / logEC10: MMP bioassay, dosing range all; for EC10, linear: linear model; for logEC10: log-logistic model; for Specificity ratio (SRbaseline) SRMMP: against baseline cytotoxicity; for Specificity ratio (SRcytotoxicity) SRMMP: against experimental cytotoxicity; for Relative effect potency REPMMP: relative to BPA
Source text: All bioassay media components and the ERα-UAS-bla GripTite and PPARγ-UAS-bla cells were obtained from Thermo Fisher Scientific (Waltham, MA, USA). AREc32 reporter gene cells based on MCF7 were provided by C. Roland Wolf (Cancer Research UK); AhR CALUX cells (H4L7.5c2 derived from H4IIe) were provided by Michael Denison (UC Davis, USA); and SH-SY5Y cells were purchased from Sigma-Aldrich.
(§1) Cell culture conditions and bioassay protocols including response detection are provided in Text S2.1–2.4 and Table S3. − Cell viability was determined from cell confluency using an IncuCyte S3 Live-Cell Analysis System (Sartorius AG, Essen, Germany) before and after exposure, except for SH-SY5Y cells (live–dead staining with Nuclear Green LcS1 and propidium iodide, Abcam, UK). For metabolic activation experiments, cell viability was assessed using the ToxBLAzer DualScreen Kit (Thermo Fisher Scientific) to capture the remaining toxicity in ERα-UAS-bla GripTite after treatment with the aCYP catalyst (details in Text S2.4).
For ARE, the concentration that triggered an induction ratio of 1.5 (ECIR1.5) was used as the benchmark value, as detailed in Text S2.5. IC10 values also served as a threshold for data analysis in all assays; only concentrations below IC10 were considered when deriving EC10 or ECIR1.5. […]
S2: Cell culture and bioassays
S2.1: Cell Culturing Conditions
All suppliers and sources are given in detail in SI-Excel S3. The bioassay media for the different assays were prepared as follows: Assay medium for ER alpha-UAS-bla GripTite (ERα) and […]
2% charcoal-stripped FBS, and 100 U/mL penicillin-streptomycin. MitoOxTox and AhR assay medium was comprised of 90% DMEM with GlutaMAX, supplemented with 10% FBS, and 100 U/mL penicillin-streptomycin. […]
(§2) S2.2: Cell Seeding and Incubation. For all bioassays, cell suspensions in the respective assay medium were dispensed into each well of 384-well plates using a MultiFlo Dispenser (Biotek, (now Agilent), Winooski, VT, U.S.). After seeding, the plates were incubated at 37° C and 5% CO₂ for […]. The final cell densities and plate types were as follows: Black poly-D-lysine […]
(§3) 6500 cells/well, ERα: 5000 cells/well. White 384-well plates with a clear bottom (Product No.
(§4) NYC, U.S.) for AhR: 3250 cells/well. Black Collagen I coated plates were used (Product No.
(§5) S2.3: Chemical Dosing and Assay Analysis Procedures. The dosing procedure and high-throughput assay workflow have been described in detail before. 9 The dosing concentrations […]
Stock solutions were then either

SH-SY5Y cells = conditions: for IC10, linear transformed / IC10, linear / logIC10: NOI bioassay cytotoxicity, dosing range all; for IC10, linear: linear model; for logIC10: log-logistic model; for Toxic ratio (TR) TRNOI: against baseline cytotoxicity; for IC10, SH-S5Y5, NOI: cytotoxicity, NOI assay cells
Procedure: as §1, with “S2.4). […]” for “S2.4).”
We measured the cytotoxicity of BPA and its alternatives in HEK293H (PPARγ), HEK293T (ERα), H4IIe (AhR CALUX), MCF7 (ARE/MMP), and differentiated SH-SY5Y cells (Table S6). […]
(§6) medium, supplemented with 2% B-27 Supplement and 2 mM GlutaMAX Supplement. SH - SY5Y cells were differentiated with 10 µM all-trans retinoic acid prior to the assay.
S2.2: Cell Seeding and Incubation. For all bioassays, cell suspensions in the respective assay medium were dispensed into each well of 384-well plates using a MultiFlo Dispenser (Biotek, (now Agilent), Winooski, VT, U.S.). After seeding, the plates were incubated at 37° C and 5% […]
as §4, §5
(§7) Stock solutions were then either added directly to the respective cell culture medium or evaporated under nitrogen, followed by replenishment with fresh medium. The final solvent content in each well was kept below 1% for methanol, 0% for acetonitrile.
(§8) Dosing plates were prepared as 11 -step serial dilutions using a Hamilton Microlab Star robotic system (Hamilton, Bonaduz, Switzerland), and chemicals were dosed in duplicates by transferring 10 μL twice from the dosing plates to the cell plates . After quantifying cell confluency as described in S2. 4., the exposed cells were incubated at 37° C and 5% CO₂ for an additional 24 h. All chemicals were tested in all assays with at least three independent […]
(§9) S2.4: Cell Viability Measurement s and bioanalytical protocols . The confluency as a measure of cell viability was determined with an IncuCyte S3 Live -Cell Analysis System (Sartorius AG, Essen, Germany). With this method the confluency of cells in a microscopy image are normalized to control wells without cells and compared before and after 24 hours of exposure.
(§10) This method has been described previously 13. Cell viability of SH-SY5Y cells was measured […]
(§11) propidium iodide (PI, Abcam, Cambridge, U.K.).14 Nuclear Green LCS1 is a membrane-permeable dye that stains the nuclei of all cells, whereas PI only enters cells with compromised membrane integrity (non-viable cells). After staining, live cells show green nuclei without red fluorescence, while dead cells display both green and red nuclear fluorescence due to PI […]
intercalation. […]

[2] = system: HEK293H, HEK293T, H4IIe, MCF7 and SH-SY5Y cells; conditions: for cytotoxicity,median REPBPA,IC10: median IC10 relative to BPA; for IC10,Median (M): median cytotoxicity of all cell lines; for IC10, median: median cytotoxicity over all cell lines
Procedure: as §1
For ARE, the concentration that triggered an induction ratio of 1.5 (ECIR1.5) was used as the benchmark value, as detailed in Text S2.5. IC10 values also served as a threshold for data analysis in all assays; only concentrations below IC10 were considered when deriving EC10 or ECIR1.5.
TR indicates whether the cytotoxicity is triggered by specific toxicity mechanisms (TR ≥ 10) or not (0.1< TR< 10). 3 TR=IC10,baseline/IC10 We measured the cytotoxicity of BPA and its alternatives in HEK293H (PPARγ), HEK293T (ERα), H4IIe (AhR CALUX), MCF7 (ARE/MMP), and differentiated SH-SY5Y cells (Table S6). […]
as §6, §2, §3, §4, §5, §7, §8, §9, §10, §11
intercalation. Cell viability was calculated as the proportion of green-only nuclei relative to the […]
For experiments with the preceding aCYP activation, ERα cell viability was additionally calculated from the readout of the ToxBLAzer reagent. The ToxBLAzer assay was conducted following the manufacturer's instructions (Thermo Fisher, Waltham, MA, U.S.).13 Fluorescence

[3] = Arec32, read-out: EC10, linear transformed
[4] = Arec32, read-out: EC10, MMP (M)

Cc1cc(Cc2cc(C)c(O)c(C)c2)cc(C)c1O [TMBPF, Bis(3,5-dimethyl-4-hydroxyphenyl)methane]
EC10 [1, 3]: 6.68e-05 M
EC10, linear [1]: no effect
logEC10 [1]: no effect
IC10, linear transformed (SH-SY5Y cells): 1.27E-05
IC10, linear (SH-SY5Y cells): 1.62E-05
logIC10 (SH-SY5Y cells): -4.90
Toxic ratio (TR) TRNOI (SH-SY5Y cells): 0.73
IC10, SH-S5Y5, NOI (SH-SY5Y cells): 12.7 µM
cytotoxicity,median REPBPA,IC10 [2]: 5.51
IC10,Median (M) [2]: 1.27 × 10^–5 M
IC10, median [2]: 12.7 µM

O=C(OCc1ccccc1)c1ccc(O)cc1 [BzPB, Benzyl 4-hydroxybenzoate]
EC10 ([1]; Arec32, read-out: EC10, MMP): 2.44e-05 M
EC10 [1, 4]: 2.44e-05 M
EC10 ([1]; Arec32, read-out: EC10, linear): 1.68e-05 M
EC10 [1, 3]: 2.45e-05 M
EC10 ([1]; Arec32, read-out: logEC10): 2.45e-05 M
Specificity ratio (SRbaseline) SRMMP [1]: 1.38
Specificity ratio (SRcytotoxicity) SRMMP [1]: 12.18
Relative effect potency REPMMP [1]: 1.15
SR (MMP inhibition) ([1]; specificity ratio): > 10
IC10, linear transformed (SH-SY5Y cells): 3.89E-04
IC10, linear (SH-SY5Y cells): no cytotoxicity
logIC10 (SH-SY5Y cells): -3.41
Toxic ratio (TR) TRNOI (SH-SY5Y cells): 0.07
IC10, SH-S5Y5, NOI (SH-SY5Y cells): 389 µM
cytotoxicity,median REPBPA,IC10 [2]: 0.53
IC10,Median (M) [2]: 1.32 × 10^–4 M
IC10, median [2]: 132 µM

CCC(C)(c1ccc(O)cc1)c1ccc(O)cc1 [BPB, 4,4'-(Butane-2,2-diyl)diphenol]
EC10 ([1]; Arec32, read-out: EC10, MMP): 1.64e-05 M
EC10 [1, 4]: 1.64e-05 M
EC10 ([1]; Arec32, read-out: EC10, linear): 9.79e-06 M
EC10 [1, 3]: 1.62e-05 M
EC10 ([1]; Arec32, read-out: logEC10): 1.62e-05 M
Specificity ratio (SRbaseline) SRMMP [1]: 1.33
Specificity ratio (SRcytotoxicity) SRMMP [1]: 2.14
Relative effect potency REPMMP [1]: 1.71
IC10, linear transformed (SH-SY5Y cells): 1.67E-04
IC10, linear (SH-SY5Y cells): 2.31E-04
logIC10 (SH-SY5Y cells): -3.78
Toxic ratio (TR) TRNOI (SH-SY5Y cells): 0.10
IC10, SH-S5Y5, NOI (SH-SY5Y cells): 167 µM
cytotoxicity,median REPBPA,IC10 [2]: 1.93
IC10,Median (M) [2]: 3.62 × 10^–5 M
IC10, median [2]: 36.2 µM

Oc1ccc(Cc2ccc(O)cc2)cc1 [BPF, Bis(4-hydroxyphenyl)methane]
EC10 ([1]; Arec32, read-out: EC10, linear): 0.000167 M
EC10 [1, 3]: 0.000167 M
EC10 ([1]; Arec32, read-out: logEC10): 0.000166 M
IC10, linear transformed (SH-SY5Y cells): 5.69E-04
IC10, linear (SH-SY5Y cells): 5.56E-04
logIC10 (SH-SY5Y cells): -3.24
IC10, SH-S5Y5, NOI (SH-SY5Y cells): 569 µM
cytotoxicity,median REPBPA,IC10 [2]: 0.17
IC10,Median (M) [2]: 4.09 × 10^–4 M
IC10, median [2]: 409 µM

CC(c1ccccc1)(c1ccc(O)cc1)c1ccc(O)cc1 [BPAP, 4,4'-(1-Phenylethylidene)bisphenol]
EC10 [1, 3]: 2.84e-05 M
EC10, linear [1]: no effect
logEC10 [1]: no effect
IC10, linear transformed (SH-SY5Y cells): 1.06E-04
IC10, linear (SH-SY5Y cells): no cytotoxicity
logIC10 (SH-SY5Y cells): -3.97
IC10, SH-S5Y5, NOI (SH-SY5Y cells): 106 µM
cytotoxicity,median REPBPA,IC10 [2]: 2.12
IC10,Median (M) [2]: 3.31 × 10^–5 M
IC10, median [2]: 33.1 µM
